Legend:
L1210 leukemic cells = assay: Chemotherapy of mice injected intravenously with L1210 leukemic cells; increase in life span (ILS) versus controls; format: in vivo; conditions: preliminary
Source text: To deliver the water insoluble cis Pt (II) analogues for chemotheraphy, they were encapsulated in sonicated phosphatidylcholine (PC) vesicles. To prepare these PC vesicles, both the cis Pt (II) analogue and PC had to be lyophilized from cyclohexane or benzene to give a dry powder for hydration by an aqueous medium. Simply drying down an organic solution of both the cis Pt (II) analogue and the PC gave unsatisfactory results upon hydration. The lyophilized samples were hydrated with physiological saline and then sonicated at 4°C using a W-375 Branson sonicator, under a nitrogen atmosphere. The sonicated samples were spun at 12,000 x G for 5 minutes to remove any titanium fragments from the sonicator probe and any undispersed lipid. […] Therefore all preparations were passed down a G-50 gel permeation column to separate any free cis Pt (II) from the hydrophobic cis Pt (II) analogue encapsulated in egg PC vesicles had better structural integrity and more uniform size distribution than the same analogues in soy PC vesicles. […] That is, the vesicles containing the cis Pt (II) analogues that had the lowest amounts of free phosphatidic acid, had the best structural stability and smaller size ranges. This is in direct contrast to the effect of phosphatidic acid in PC vesicles in the absence of the cis Pt (II) analogues.
The fractions from the G-50 column containing the encapsulated cis Pt (II) analogues were concentrated by ultrafiltration to the desired concentration for chemotheraphy studies.
Various compounds synthesized and incorporated in liposomal vesicles in the foregoing manner were employed in the chemotherapy of mice. The testing consisted of injections of 10 5 L1210 leukemic cells intravenuously into mice. One day later, a single -intravenous dose of the cis Pt (II) analogue in a sonicated PC vesicle was given. Increase in life span (ILS) was then measured relative to control animals who received only saline or PC vesicles alone as intravenous injections. Data are shown in Table I, together with data on some tests in which samples were not passed through a gel permeation column to remove free cis Pt (II), but an injectable preparation was made by the addition of "Tween" 80.

[1] = Toxicity (LD10) of the cis Pt (II) analogues in PC vesicles; format: in vivo, mice; conditions: passed through G-50 column, preliminary
[2] = Egg PC vesicle, passed through G-50 column, single intravenous dose one day after L1210 cells i.v.
[3] = Egg PC vesicle, passed through G-50 column, single intravenous dose
[4] = Soy PC vesicle, passed through G-50 column, single intravenous dose one day after L1210 cells i.v.
[5] = Soy PC vesicle, passed through G-50 column, single intravenous dose

Row | Substance | % ILS at Optimal Dose (L1210 leukemic cells; [2]) [%] | Optimal Dose (L1210 leukemic cells; [3]) [mg Pt/kg] | % ILS at Optimal Dose (L1210 leukemic cells; Soy PC vesicle, samples not treated by G-50 column and Tween-80 added, single intravenous dose) [%] | LD10 ([1]; Egg PC vesicle) [mg Pt/kg] | % ILS at Optimal Dose (L1210 leukemic cells; [4]) [%] | Optimal Dose (L1210 leukemic cells; [5]) [mg Pt/kg] | LD10 ([1]; Soy PC vesicle) [mg Pt/kg]
1 | Dioleyl Phosphaditic Acid 1,2 Diaminocyclohexane Cis Pt (II) [Dioleyl phosphatidic acid DAC] | 83 | 39 | 0 | 58 |  |  | 
2 | Dipalmitoyl Phosphatidic Acid 1,2 Diaminocyclohexane Cis Pt (II) [Dipalmitoyl phosphatidic acid DAC] | 100 | 39 |  | 58 |  |  | 
3 | Egg Phosphaditic Acid 1,2 Diaminocyclohexane Cis Pt (II) [Egg phosphatidic acid DAC] | 50 | 26 |  | >58 |  |  | 
4 | Soy Phosphaditic Acid Bis Cyclohexylamine Cis Pt (II) |  |  |  |  | 16 | 155 | 500
5 | Soy Phosphatidic Acid Bis Cyclopentylamine Cis Pt (II) |  |  |  |  | 16 | 125 | 125
6 | Soy Phosphatidic Acid Bis Isoamylamine Cis Pt (II) |  |  |  |  | 8 | 155 | 345

From EP0113508A1, “Hydrophobic platinum compounds and their preparation” (Inco Research & Development Center, Inc., priority 1982, dated 1984)
